Experimental data from patent US6342523B1, “3,4,5-trisubstituted aryl nitrone compounds, pharmaceutical compositions containing the same and methods for treating inflammation” (Centaur Pharmaceuticals, Inc., priority 1998, dated 2002).

Columns and labels:
[1] = tested on: adjuvant-induced footpad edema; assay: Adjuvant assay (adjuvant-induced footpad edema); format: in vivo; settings: Male Lewis rats; 3 mg/kg, po; dosing day 14 to day 21 post-adjuvant
Protocol: This assay is a model for chronic inflammation. See, for example, […], “Rat Adjuvant Arthritis: A Model of Chronic Inflammation,” Pharmacological Methods in the Control of Inflammation, 363-380 (1989) and references cited therein. In this assay, Male Lewis rats weighing between 180-220 g were lightly anesthetized with an ip injection of 30 mg/kg of sodium pentobarbital (50 mg/mL). Desiccated Mycobacterium butyrium (Difco, 20 mg/mL) suspended in mineral oil was injected (50 μL) at both sides of the base of the tail under the skin. A line was tattooed on both rear paws at 5 mm above the angle of the ankle. The paw volumes, under the line, were measured by volume displacement using a plethysmonmeter (Ugo Basile) at the day of adjuvant injection (day 0) and on day 14. On day 14, animals with paw volumes equal to the mean of paw volumes±SD were randomized into treatment groups. Rats which fell outside±1 SD were not used in the experiment. […] Dosing began on day 14, and continued until final assessment on day 21 post-adjuvant injection. […] This group has a slightly positive volume increase when paw volumes on day 21 are subtracted from day 0 values due to growth of the rat. […] Compounds reducing paw volume by at least about 30% compared to vehicle control group were considered effective in this test.

cyclooxygenase 1 (COX-1) = target: T1, cyclooxygenase 1 (COX-1) (Ovis aries, UniProt P05979); assay: Inhibition of COX-1 (arachidonic acid incubation, PGE2 formation by malondialdehyde quantitation); settings: 300 μM; COX-1 derived from ram seminal vesicles
T1 sequence (P05979 25-600): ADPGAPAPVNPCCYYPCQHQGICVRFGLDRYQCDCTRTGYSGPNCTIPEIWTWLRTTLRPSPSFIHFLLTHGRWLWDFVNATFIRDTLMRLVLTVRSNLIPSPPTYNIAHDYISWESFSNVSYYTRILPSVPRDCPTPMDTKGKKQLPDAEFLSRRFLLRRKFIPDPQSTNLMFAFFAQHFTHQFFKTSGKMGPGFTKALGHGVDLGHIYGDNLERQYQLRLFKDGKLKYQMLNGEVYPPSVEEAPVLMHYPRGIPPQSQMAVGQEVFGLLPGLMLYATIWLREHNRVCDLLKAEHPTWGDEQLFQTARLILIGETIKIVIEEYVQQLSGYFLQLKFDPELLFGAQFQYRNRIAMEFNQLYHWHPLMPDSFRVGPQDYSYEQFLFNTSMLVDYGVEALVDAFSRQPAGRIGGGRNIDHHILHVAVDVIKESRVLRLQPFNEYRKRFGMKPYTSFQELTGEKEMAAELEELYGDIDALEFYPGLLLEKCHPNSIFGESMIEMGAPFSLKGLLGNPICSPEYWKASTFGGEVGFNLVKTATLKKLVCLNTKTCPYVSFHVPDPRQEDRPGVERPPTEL
Protocol: (§1) The inhibition of COX-I was measured by incubating arachidonic acid with COX-1 derived from ram seminal vesicles. The inhibition of COX-2 was measured by incubation of arachidonic acid with COX-2 derived from sheep placenta. […] In each assay, the formation of prostaglandin E2 (PGE2) was measured by spectrophotometric quantitation of malondialdehyde.

cyclooxygenase 2 (COX-2) = target: T2, cyclooxygenase 2 (COX-2) (Ovis aries, UniProt P79208); assay: Inhibition of COX-2 (arachidonic acid incubation, PGE2 formation by malondialdehyde quantitation); settings: 300 μM; COX-2 derived from sheep placenta
T2 sequence (P79208 17-603): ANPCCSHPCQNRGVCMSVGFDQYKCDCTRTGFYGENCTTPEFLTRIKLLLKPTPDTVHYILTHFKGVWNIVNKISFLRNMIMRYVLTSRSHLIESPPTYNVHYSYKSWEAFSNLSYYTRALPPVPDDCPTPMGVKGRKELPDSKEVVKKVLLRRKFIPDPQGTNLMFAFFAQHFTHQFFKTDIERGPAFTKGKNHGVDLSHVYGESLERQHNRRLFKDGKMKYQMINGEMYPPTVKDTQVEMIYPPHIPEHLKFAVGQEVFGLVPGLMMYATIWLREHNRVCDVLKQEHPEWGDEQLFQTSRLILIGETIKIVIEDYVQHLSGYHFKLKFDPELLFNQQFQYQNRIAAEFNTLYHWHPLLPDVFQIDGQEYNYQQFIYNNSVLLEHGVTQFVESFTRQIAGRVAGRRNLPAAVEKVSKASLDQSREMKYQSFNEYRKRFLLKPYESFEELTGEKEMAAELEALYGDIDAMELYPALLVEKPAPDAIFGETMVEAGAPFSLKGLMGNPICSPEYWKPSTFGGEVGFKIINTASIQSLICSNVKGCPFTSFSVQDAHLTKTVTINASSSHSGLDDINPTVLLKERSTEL
Protocol: as §1

## CCC(=O)Oc1c(C(C)(C)C)cc(/C=[N+](\[O-])C(C)(C)C)cc1C(C)(C)C [Example 8, α-(4-propionyloxy-3,5-di-tert-butylphenyl)-N-tert-butylnitrone]
other
  melting point: 202 to 222 °C

## COc1ccc2c(c1)c(CC(=O)O)c(C)n2C(=O)c1ccc(Cl)cc1 [indomethacin]
[1]
  Paw volume compared to vehicle controls: significantly reduced paw volume

## CC(=O)Oc1c(C(C)(C)C)cc(/C=[N+](\[O-])C(C)(C)C)cc1C(C)(C)C [Example 1, α-(4-Acetoxy-3,5-di-tert-butylphenyl)-N-tert-butylnitrone]
Cyclooxygenase 1 (COX-1)
  Inhibition of COX-1: did not significantly affect
Cyclooxygenase 2 (COX-2)
  Inhibition of COX-2: did not significantly affect

## CC(=O)Oc1c(C(C)(C)C)cc(/C=[N+](/C)[O-])cc1C(C)(C)C [Example 9, α-(4-acetoxy-3,5-di-tert-butylphenyl)-N-methylnitrone]
other
  melting point: 136 to 143 °C
